Reference: the supplement of paper PMC8617591

Key:
[1] = tested on: Mycobacterium tuberculosis Erdman (autoluminescent); test: total FIC50 (Loewe) at 50% inhibition, three-drug combination (log2); higher = more antagonistic
Method: (§1)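 DiaMOND equipotent three-drug combination dose responses (10 doses, 1.5- or 2-fold spacing, centred on IC90) against autoluminescent M. tuberculosis Erdman in 8 in vitro models. Read-out is OD600, or luminescence for the intracellular and dormancy models, normalised to untreated wells. Hill-fit Einf, AUC25 and GRinf are potency metrics; FIC50 and FIC90 are total Loewe fractional inhibitory concentrations as log2 (negative = synergy).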

[2] = tested on: Mycobacterium tuberculosis Erdman (autoluminescent); test: total FIC90 (Loewe) at 90% inhibition, three-drug combination (log2); higher = more antagonistic
Method: as §1

[3] = tested on: Mycobacterium tuberculosis Erdman (autoluminescent); test: AUC25, normalised area under dose response up to IC25 (three-drug combination) (fraction (0-1)); higher = more potent at low dose
Method: as §1

[4] = tested on: Mycobacterium tuberculosis Erdman (autoluminescent); test: Einf, fitted maximum growth inhibition of three-drug combination (fraction); higher = stronger maximal inhibition
Method: as §1

[5] = tested on: Mycobacterium tuberculosis Erdman (autoluminescent); test: GRinf, maximum normalised growth rate inhibition (three-drug combination) (unitless (-1 to 1)); higher = less effect (negative = killing)
Method: as §1

CC(C)/N=c1\cc2n(-c3ccc(Cl)cc3)c3ccccc3nc-2cc1Nc1ccc(Cl)cc1 [clofazimine] + NC(=O)c1cnccn1 [pyrazinamide] + CO[C@H]1/C=C/O[C@@]2(C)Oc3c(C)c(O)c4c(O)c(c(/C=N/N5CCN(C)CC5)c(O)c4c3C2=O)NC(=O)/C(C)=C\C=C\[C@H](C)[C@H](O)[C@@H](C)[C@@H](O)[C@@H](C)[C@H](OC(C)=O)[C@@H]1C [rifampicin]
Conditions | AUC25, [3] | Einf, [4] | GRinf, [5] | total FIC50, [1] | total FIC90, [2]
in vitro model: acidic pH 5.7, time point: constant (~7 days, model-specific) | 0.0832 | 0.905 | -0.142 | -0.249 | –
in vitro model: acidic pH 5.7, time point: terminal (~4-5 doublings, model-specific) | 0.0739 | 0.988 | -0.217 | -0.174 | -0.451
in vitro model: intracellular J774, time point: constant = terminal | – | 0.995 | -0.387 | – | -0.136

Conditions | AUC25, [3] | Einf, [4] | GRinf, [5] | total FIC50, [1] | total FIC90, [2]
in vitro model: butyrate, time point: constant (~7 days, model-specific) | 0.115 | 0.918 | -0.091 | 0.234 | 0.505
in vitro model: butyrate, time point: terminal (~4-5 doublings, model-specific) | 0.0935 | 0.967 | -0.0615 | 0.0552 | 0.0714
in vitro model: cholesterol 0.05 mM, time point: constant (~7 days, model-specific) | 0.122 | 0.657 | -0.00769 | – | –
in vitro model: cholesterol 0.05 mM, time point: terminal (~4-5 doublings, model-specific) | 0.106 | 0.894 | -0.15 | 1.2 | –
in vitro model: cholesterol-high 0.2 mM, time point: constant (~7 days, model-specific) | 0.113 | 0.864 | -0.605 | 1.06 | –
in vitro model: cholesterol-high 0.2 mM, time point: terminal (~4-5 doublings, model-specific) | 0.107 | 1 | -0.764 | 1.43 | 1.53
in vitro model: dormancy (butyrate + nitrate, low O2), time point: constant (~7 days, model-specific) | 0.0887 | 0.949 | 0.12 | -0.433 | -1.62
in vitro model: dormancy (butyrate + nitrate, low O2), time point: terminal (~4-5 doublings, model-specific) | 0.0801 | 0.994 | -0.455 | -0.413 | 0.318
in vitro model: standard 7H9 glycerol, time point: constant = terminal | 0.114 | 0.935 | 0.0256 | -0.361 | –
in vitro model: valerate, time point: constant (~7 days, model-specific) | 0.106 | 0.813 | 0.205 | 0.653 | –
in vitro model: valerate, time point: terminal (~4-5 doublings, model-specific) | 0.0497 | 0.896 | 0.165 | 0.53 | 1.88

CC[C@@H](CO)NCCN[C@@H](CC)CO [ethambutol] + COc1c(N2C[C@@H]3CCCN[C@@H]3C2)c(F)cc2c(=O)c(C(=O)O)cn(C3CC3)c12 [moxifloxacin] + O=[N+]([O-])c1cn2c(n1)OC[C@@H](OCc1ccc(OC(F)(F)F)cc1)C2 [pretomanid]
Conditions | AUC25, [3] | Einf, [4] | GRinf, [5] | total FIC50, [1] | total FIC90, [2]
in vitro model: acidic pH 5.7, time point: constant (~7 days, model-specific) | 0.124 | 0.718 | -0.388 | 0.434 | –
in vitro model: acidic pH 5.7, time point: terminal (~4-5 doublings, model-specific) | 0.0788 | 0.939 | -0.335 | 1.03 | 0.811
in vitro model: intracellular J774, time point: constant = terminal | – | 0.999 | -0.573 | – | -1.12

Conditions | AUC25, [3] | Einf, [4] | GRinf, [5] | total FIC50, [1] | total FIC90, [2]
in vitro model: butyrate, time point: constant (~7 days, model-specific) | 0.0791 | 0.94 | -0.0315 | 0.478 | –
in vitro model: butyrate, time point: terminal (~4-5 doublings, model-specific) | 0.0604 | 0.968 | -0.039 | 0.42 | 0.0737
in vitro model: cholesterol 0.05 mM, time point: constant (~7 days, model-specific) | 0.106 | 0.669 | -0.247 | 0.987 | –
in vitro model: cholesterol 0.05 mM, time point: terminal (~4-5 doublings, model-specific) | 0.116 | 0.927 | -0.457 | 0.0988 | 1.38
in vitro model: cholesterol-high 0.2 mM, time point: constant (~7 days, model-specific) | 0.0657 | 0.89 | -0.187 | 0.925 | –
in vitro model: cholesterol-high 0.2 mM, time point: terminal (~4-5 doublings, model-specific) | 0.0467 | 1 | -0.609 | 1.12 | 1.04
in vitro model: dormancy (butyrate + nitrate, low O2), time point: constant (~7 days, model-specific) | 0.116 | 0.835 | 0.349 | 0.37 | –
in vitro model: dormancy (butyrate + nitrate, low O2), time point: terminal (~4-5 doublings, model-specific) | 0.126 | 0.986 | -0.335 | -0.414 | 0.703
in vitro model: standard 7H9 glycerol, time point: constant = terminal | 0.0753 | 0.974 | -0.251 | 0.294 | 0.564
in vitro model: valerate, time point: constant (~7 days, model-specific) | 0.0943 | 0.862 | -0.00882 | -0.131 | –
in vitro model: valerate, time point: terminal (~4-5 doublings, model-specific) | 0.0516 | 0.929 | 0.0316 | 0.26 | -0.798

CC[C@@H](CO)NCCN[C@@H](CC)CO [ethambutol] + COc1c(N2C[C@@H]3CCCN[C@@H]3C2)c(F)cc2c(=O)c(C(=O)O)cn(C3CC3)c12 [moxifloxacin] + CO[C@H]1/C=C/O[C@@]2(C)Oc3c(C)c(O)c4c(O)c(c(/C=N/N5CCN(C)CC5)c(O)c4c3C2=O)NC(=O)/C(C)=C\C=C\[C@H](C)[C@H](O)[C@@H](C)[C@@H](O)[C@@H](C)[C@H](OC(C)=O)[C@@H]1C [rifampicin]
Conditions | AUC25, [3] | Einf, [4] | GRinf, [5] | total FIC50, [1] | total FIC90, [2]
in vitro model: acidic pH 5.7, time point: constant (~7 days, model-specific) | 0.0728 | 0.842 | 0.00792 | 0.27 | –
in vitro model: acidic pH 5.7, time point: terminal (~4-5 doublings, model-specific) | 0.033 | 0.969 | -0.0608 | 0.591 | -0.139
in vitro model: intracellular J774, time point: constant = terminal | – | 0.965 | -0.353 | – | -1.82

Conditions | AUC25, [3] | Einf, [4] | GRinf, [5] | total FIC50, [1] | total FIC90, [2]
in vitro model: butyrate, time point: constant (~7 days, model-specific) | 0.0797 | 0.924 | -0.0218 | 0.419 | –
in vitro model: butyrate, time point: terminal (~4-5 doublings, model-specific) | 0.0647 | 0.966 | -0.0188 | 0.334 | -0.296
in vitro model: cholesterol 0.05 mM, time point: constant (~7 days, model-specific) | 0.104 | 0.602 | 0.0718 | 0.0825 | –
in vitro model: cholesterol 0.05 mM, time point: terminal (~4-5 doublings, model-specific) | 0.082 | 0.876 | 0.198 | 0.896 | –
in vitro model: cholesterol-high 0.2 mM, time point: constant (~7 days, model-specific) | 0.0425 | 0.937 | -0.354 | 1.01 | –
in vitro model: cholesterol-high 0.2 mM, time point: terminal (~4-5 doublings, model-specific) | 0.0582 | 1 | -0.753 | 1.13 | 1.05
in vitro model: dormancy (butyrate + nitrate, low O2), time point: constant (~7 days, model-specific) | 0.0959 | 0.838 | 0.346 | -0.35 | –
in vitro model: dormancy (butyrate + nitrate, low O2), time point: terminal (~4-5 doublings, model-specific) | 0.0588 | 0.985 | -0.0843 | 0.268 | -0.495
in vitro model: standard 7H9 glycerol, time point: constant = terminal | 0.0299 | 0.861 | 0.231 | 0.166 | –
in vitro model: valerate, time point: constant (~7 days, model-specific) | 0.0379 | 0.867 | 0.0142 | 0.576 | –
in vitro model: valerate, time point: terminal (~4-5 doublings, model-specific) | 0.0266 | 0.93 | 0.0403 | 0.645 | -0.611
